# Patent US8575158B2, “1-phenyl-substituted heterocyclyl derivatives and their use as prostaglandin D2 receptor modulators” (Actelion Pharmaceuticals Ltd., priority 2010, dated 2013)
# Molecular target: T1, hCRTH2 receptor (Homo sapiens, UniProt Q9Y5Y4)
# T1 construct: expressed in transfected cells; host or cells: HEK293
# T1 sequence (Q9Y5Y4 1-395): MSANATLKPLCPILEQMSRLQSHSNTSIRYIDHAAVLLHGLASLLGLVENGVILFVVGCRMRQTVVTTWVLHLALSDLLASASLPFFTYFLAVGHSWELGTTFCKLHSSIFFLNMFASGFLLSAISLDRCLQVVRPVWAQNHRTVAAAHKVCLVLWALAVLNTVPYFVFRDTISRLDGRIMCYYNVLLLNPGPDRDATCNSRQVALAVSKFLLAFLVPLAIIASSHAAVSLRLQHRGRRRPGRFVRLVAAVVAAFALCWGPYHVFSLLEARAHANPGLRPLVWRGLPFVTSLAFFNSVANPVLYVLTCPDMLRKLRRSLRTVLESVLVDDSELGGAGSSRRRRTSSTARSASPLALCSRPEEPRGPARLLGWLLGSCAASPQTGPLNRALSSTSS
# Assay: Radioligand displacement assay (3H-PGD2) on hCRTH2 receptor membranes
# Type: binding
# Details: antagonistic activity, 3H-PGD2 radioligand displacement, HEK293-hCRTH2 membranes
row,SMILES,IC50
1,"Cc1cnc(COC(=O)N2CCc3c(ccc(F)c3F)[C@H]2c2cc(Cl)ccc2OCC(=O)O)s1 [Example 301, (S)-1-(2-Carboxymethoxy-5-chloro-phenyl)-5,6-difluoro-3,4-dihydro-1H-isoquinoline-2-carboxylic acid 5-methyl-thiazol-2-ylmethyl ester]",4.55 nM
2,"Cc1nc(COC(=O)N2CCc3c(ccc(F)c3F)[C@H]2c2cc(Cl)ccc2OCC(=O)O)cs1 [Example 304, (S)-1-(2-Carboxymethoxy-5-chloro-phenyl)-5,6-difluoro-3,4-dihydro-1H-isoquinoline-2-carboxylic acid 2-methyl-thiazol-4-ylmethyl ester]",5.39 nM
3,"O=C(O)COc1ccc(Cl)cc1[C@@H]1c2ccc(F)c(F)c2CCN1C(=O)OCc1cnccn1 [Example 308, (S)-1-(2-Carboxymethoxy-5-chloro-phenyl)-5,6-difluoro-3,4-dihydro-1H-isoquinoline-2-carboxylic acid pyrazin-2-ylmethyl ester]",1.69 nM
4,"O=C(O)COc1ccc(Cl)cc1[C@@H]1c2ccc(F)c(F)c2CCN1C(=O)OCc1ccncn1 [Example 309, (S)-1-(2-Carboxymethoxy-5-chloro-phenyl)-5,6-difluoro-3,4-dihydro-1H-isoquinoline-2-carboxylic acid pyrimidin-4-ylmethyl ester]",4.77 nM
5,"O=C(O)COc1ccc(Cl)cc1[C@@H]1c2ccc(F)c(F)c2CCN1C(=O)OCCc1ccccc1 [Example 310, (S)-1-(2-Carboxymethoxy-5-chloro-phenyl)-5,6-difluoro-3,4-dihydro-1H-isoquinoline-2-carboxylic acid phenethyl ester]",5.14 nM
6,"O=C(O)COc1ccc(Cl)cc1[C@@H]1c2ccc(F)c(F)c2CCN1C(=O)OCCc1cccc(F)c1 [Example 311, (S)-1-(2-Carboxymethoxy-5-chloro-phenyl)-5,6-difluoro-3,4-dihydro-1H-isoquinoline-2-carboxylic acid 2-(3-fluoro-phenyl)-ethyl ester]",11 nM

# Second part, the compound after the results:
row,IC50,SMILES
1,5.7 nM,"Cc1csc(COC(=O)N2CCc3c(ccc(F)c3F)[C@H]2c2cc(Cl)ccc2OCC(=O)O)n1 [Example 302, (S)-1-(2-Carboxymethoxy-5-chloro-phenyl)-5,6-difluoro-3,4-dihydro-1H-isoquinoline-2-carboxylic acid 4-methyl-thiazol-2-ylmethyl ester]"
2,5.05 nM,"Cc1ncc(COC(=O)N2CCc3c(ccc(F)c3F)[C@H]2c2cc(Cl)ccc2OCC(=O)O)s1 [Example 303, (S)-1-(2-Carboxymethoxy-5-chloro-phenyl)-5,6-difluoro-3,4-dihydro-1H-isoquinoline-2-carboxylic acid 2-methyl-thiazol-5-ylmethyl ester]"
3,2.13 nM,"Cc1cc(COC(=O)N2CCc3c(ccc(F)c3F)[C@H]2c2cc(Cl)ccc2OCC(=O)O)on1 [Example 305, (S)-1-(2-Carboxymethoxy-5-chloro-phenyl)-5,6-difluoro-3,4-dihydro-1H-isoquinoline-2-carboxylic acid 3-methyl-isoxazol-5-ylmethyl ester]"
4,3.12 nM,"Cc1conc1COC(=O)N1CCc2c(ccc(F)c2F)[C@H]1c1cc(Cl)ccc1OCC(=O)O [Example 306, (S)-1-(2-Carboxymethoxy-5-chloro-phenyl)-5,6-difluoro-3,4-dihydro-1H-isoquinoline-2-carboxylic acid 4-methyl-isoxazol-3-ylmethyl ester]"
5,3.34 nM,"Cc1noc(C)c1COC(=O)N1CCc2c(ccc(F)c2F)[C@H]1c1cc(Cl)ccc1OCC(=O)O [Example 307, (S)-1-(2-Carboxymethoxy-5-chloro-phenyl)-5,6-difluoro-3,4-dihydro-1H-isoquinoline-2-carboxylic acid 3,5-dimethyl-isoxazol-4-ylmethyl ester]"
6,4.65 nM,"Cn1nccc1COC(=O)N1CCc2c(ccc(F)c2F)[C@H]1c1cc(Cl)ccc1OCC(=O)O [Example 312, (S)-1-(2-Carboxymethoxy-5-chloro-phenyl)-5,6-difluoro-3,4-dihydro-1H-isoquinoline-2-carboxylic acid 2-methyl-2H-pyrazol-3-ylmethyl ester]"
